In US9480754B2, “Phospholipid ether analogs as cancer-targeting drug vehicles” (Cellectar Biosciences, Inc., priority 2014, dated 2016):

Assays:
[1] = tested on: cancer cell lines (renal, ovarian, pancreatic, melanoma, prostate) vs normal human skin fibroblast; assay: CLR1501 uptake in cancer cell lines vs normal fibroblasts (confocal microscopy); type: cell-based; conditions: 24 hours, 5 or 7.5 μM, in vitro
Excerpt: Human cancer cell lines were purchased from the American Type Culture Collection (ATCC). They included the following: Caki-2 (renal; clear cell carcinoma), HCT-116 (colorectal carcinoma); MES-SA/Dx5 (uterine sarcoma) [all maintained in McCoy's 5a medium supplemented with 10% fetal bovine serum (FBS)], Ovcar-3 (ovarian adenocarcinoma) [maintained in RPMI medium supplemented with 20% FBS], U87-MG (glioma) [maintained in minimum essential medium supplemented with 10% FBS], Mia Paca-2 (pancreatic carcinoma) (maintained in Dulbecco's modified Eagle's medium supplemented with 10% FBS), PC-3 (prostate carcinoma) (maintained in F-12K medium supplemented with 10% FBS), MDA-MB-231 (triple-negative mammary gland adenocarcinoma) (maintained in Leibovitz's medium supplemented with 10% FBS), and A549 (non-small cell lung carcinoma) (maintained in F-12 medium supplemented with 10% FBS). Normal human skin fibroblasts were purchased from ATCC and grown in Fibroblast Basal Medium PCS-201-030 supplemented with serum-free kit (Fibroblast Growth Kit-Serum-Free PCS-201-040). […]
All cells were maintained at 37° C. in appropriate medium supplemented with 10% FBS and 5% CO2. […] The emission signal of CLR1501 was detected using Alexa Fluor 488 filters (ex/em 480/520 nm). […]

[2] = tested on: human glioblastoma stemlike cells and serum-cultured human glioblastoma cells; conditions: Weichert 2014, FIG. 2; cited from earlier work
MDA-MB-468 cells [3] = assay: Annexin V/PI flow cytometry, MDA-MB-468; type: cell-based; conditions: MDA-MB-468, 1 uM, 48 hrs
[4] = tested on: MDA-MB-468, NCI-H1299, NCI-H460, Capan-2, MiaPaCa-1, HT29, HCT116 and PC-3 cancer cell lines; assay: Cell viability, panel of eight cancer cell lines; type: cell-based; conditions: serial concentrations
Protocol: The cell lines were then measured for cell viability and reported as IC50 for each treatment.
In vivo, free paclitaxel is taken up by cancerous tumor cells at a much lower rate due to the non-specific nature of paclitaxel uptake.

MDA-MB-468 cells [5] = assay: Annexin V/PI flow cytometry, MDA-MB-468; type: cell-based
Protocol: (§1) Debris was eliminated from this analysis.
MDA-MB-468 cells, were also treated with CLR conjugates (CLR1606 and CLR1607) for 72 hours and with geldanamycin (“GEL”) for 48 hours.
(§2) CLR conjugates appear to require a longer treatment period with cells to induce cell death.

PANC-1 cells = assay: Annexin V/PI flow cytometry, PANC-1; type: cell-based; conditions: table title 72 hours, GEL for 48 hours
Protocol: as §1
PANC-1 cells, a pancreatic cancer cell line, were treated with GEL conjugates (CLR1606 and CLR1607) for 72 hrs and GEL for 48 hours.

COLO 829 cells = assay: Annexin V/PI flow cytometry, COLO 829; type: cell-based
Protocol: as §1
COLO 829 cells, a melanoma cell line, were treated with […] (CLR1606 and CLR1607) for 72 hrs and GEL for 48 hours.
as §2

22RV1 cells = assay: Annexin V/PI flow cytometry, 22RV1; type: cell-based; conditions: table title 72 hours, GEL for 48 hours
Protocol: as §1
22RV1 cells, a prostate cancer cell line, were treated with GEL conjugates (CLR1606 and CLR1607) for 72 hrs and GEL for 48 hours. Cell viability was 20.3%, 21.3%, 16.0%, 21.9%, 15.7%, 19.4%, and 28.1% after treatment with no drug, 1 μM CLR1606, 10 μM CLR1606, 1 μM CLR1607, 10 μM CLR1607, 100 nM GEL, and 1 μM GEL, respectively.

C6 glioma = assay: Rat C6 glioma model, tissue distribution of NM404; type: in vivo; conditions: C6 glioma-bearing rats, 24 h after tail vein injection
Protocol: Materials and Methods: All animals were housed and handled in accordance with the University of Wisconsin Research Animal Resources Center guidelines. Rat C6 glioma cells were propagated in DMEM medium (Life Technologies, Gaithersburg, Md.) supplemented with 10% heat-inactivated FBS (BioWhittaker, Walkersville, Md.), 100 U/ml penicillin G, […] streptomycin, and 0.01 M HEPES (Life Technologies, Gaithersburg, Md.). Intracranial tumor implantation was performed as described previously. Cohen J D, et al., Intracranial C6 glioma model in adult Wistar-Furth rats. J Neuro Oncol 1990 8(1):95-6. Briefly, 1×10^6 C6 cells were resuspended in […] 1.2% methylcellulose and injected into the frontal lobes of anesthetized female Wistar rats (Harlan, Indianapolis, Ind.). Sham-operated animals received intracranial injections of an equal volume of methylcellulose without tumor cells.
Imaging Studies: Ten days after implantation, the presence of intracranial tumors was confirmed with MRI. […]
NM404 [18-(4-iodophenyl)-octadecylphosphocholine] […] In addition, normal brain, blood, kidney, liver, spleen, thyroid, and tumor tissues were weighed, and radioactivity counted in a gamma counter. The tissue distribution of radioactivity was then correlated to brain histology.

PC-3 cells = assay: 125I-CLR1404 uptake after lipid raft disruption with filipin III; type: cell-based; conditions: PC-3 cells pretreated with 2 μg/ml filipin III 15 min, then 125I-CLR1404 1 h; vs untreated control cells
Protocol: PC-3 cells were pretreated with either 2 μg/ml filipin III or vehicle for 15 min, then washed and incubated with 2 μCi of ^125I-CLR1404 for 1 h. The media was removed and the cells were washed with phosphate buffered saline containing 0.1% bovine serum albumin, trypsinized, then split into two samples for determination of cell number by DNA content (A280 compared to a cell line specific standard curve) and counts per minute using a Gamma Counter (Perkin Elmer).
This supports the hypothesis that CLR1404 uses lipid rafts as portals of entry into cancer cells.

[6] = MDA-MB-468, 1 uM, 72 hrs (Table 3)

C[N+](C)(C)CCOP(=O)([O-])OCCCCCCCCCCCCCCCCCCc1ccc(C2=C3C=CC=[N+]3[B-](F)(F)n3cccc32)cc1 [CLR1501]
preferential uptake in cancer cell lines compared to normal fibroblasts [1]: five to nine-fold
uptake compared to normal human astrocytes and fetal human neural stem cells [2]: enhanced uptake

CC(=O)O[C@H]1C(=O)[C@@]2(C)[C@H]([C@H](OC(=O)c3ccccc3)[C@]3(O)C[C@H](OC(=O)[C@H](OC(=O)CCCC(=O)Nc4ccc(CCCCCCCCCCCCCCCCCCOP(=O)([O-])OCC[N+](C)(C)C)cc4)[C@@H](NC(=O)c4ccccc4)c4ccccc4)C(C)=C1C3(C)C)[C@]1(OC(C)=O)CO[C@@H]1C[C@@H]2O [CLR1601]
Late Apoptotic (MDA-MB-468 cells [3]): 6 % of total cells
Live (MDA-MB-468 cells [3]): 79.4 % of total cells
ability to reduce cancer cell line viability [4]: capable of reducing cell viability
Early Apoptotic (MDA-MB-468 cells [5]; [6]): 9.83 % of total cells
Live (MDA-MB-468 cells [5]; [6]): 17 % of total cells
Live (MDA-MB-468 cells [5]; MDA-MB-468, 5 uM, 72 hrs): 17.8 % of total cells

CC(=O)O[C@H]1C(=O)[C@]2(C)[C@@H](OC(=O)NCCCC(=O)Nc3ccc(CCCCCCCCCCCCCCCCCCOP(=O)([O-])OCC[N+](C)(C)C)cc3)C[C@H]3OC[C@@]3(OC(C)=O)[C@H]2[C@H](OC(=O)c2ccccc2)[C@]2(O)C[C@H](OC(=O)[C@H](O)[C@@H](NC(=O)c3ccccc3)c3ccccc3)C(C)=C1C2(C)C [CLR1602]
ability to reduce cancer cell line viability [4]: not capable of significantly reducing cancer cell line viability

CC(=O)O[C@H]1C(=O)[C@@]2(C)[C@H]([C@H](OC(=O)c3ccccc3)[C@]3(O)C[C@H](OC(=O)[C@H](OC(=O)OCCCCC(=O)Nc4ccc(CCCCCCCCCCCCCCCCCCOP(=O)([O-])OCC[N+](C)(C)C)cc4)[C@@H](NC(=O)c4ccccc4)c4ccccc4)C(C)=C1C3(C)C)[C@]1(OC(C)=O)CO[C@@H]1C[C@@H]2O [CLR1603]
Early Apoptotic (MDA-MB-468 cells [3]): 1.4 % of total cells
Live (MDA-MB-468 cells [3]): 81.4 % of total cells
ability to reduce cancer cell line viability [4]: capable of reducing cell viability
Live (MDA-MB-468 cells [5]; [6]): 22.2 % of total cells
Necrotic (MDA-MB-468 cells [5]; [6]): 22 % of total cells
Live (MDA-MB-468 cells [5]; MDA-MB-468, 5 uM, 72 hrs): 19.7 % of total cells

COC1=C2C[C@@H](C)C[C@H](OC)[C@H](O)[C@@H](C)/C=C(\C)[C@H](OC(N)=O)[C@@H](OC)/C=C\C=C(/C)C(=O)NC(=CC1=O)C2=O [GEL, geldanamycin]
Live (PANC-1 cells; PANC-1, GEL 100 nM): 23.3 % of total cells
Live (PANC-1 cells; PANC-1, GEL 1 uM): 18.9 % of total cells
Live (COLO 829 cells; COLO 829, 100 nM, 48 hrs (Table 9)): 36.1 % of total cells
Live (COLO 829 cells; COLO 829, 1 uM, 48 hrs (Table 9)): 24.6 % of total cells
Live (COLO 829 cells; COLO 829, GEL 100 nM, Table 5 title 72 hours, GEL for 48 hours): 32.4 % of total cells
Live (COLO 829 cells; COLO 829, GEL 1 uM, Table 5 title 72 hours, GEL for 48 hours): 18.6 % of total cells
Live (22RV1 cells; 22RV1, GEL 100 nM): 19.4 % of total cells
Live (22RV1 cells; 22RV1, GEL 1 uM): 28.1 % of total cells
Live (MDA-MB-468 cells [5]; MDA-MB-468, GEL 1 uM, table title 72 hours, text: geldanamycin for 48 hours): 26.2 % of total cells

C[N+](C)(C)CCOP(=O)([O-])OCCCCCCCCCCCCCCCCCCc1ccc(I)cc1 [NM404, 18-(4-iodophenyl)-octadecylphosphocholine]
Tumor to brain ratio (% injected dose/g) (C6 glioma): 10.5
reduction of uptake when lipid rafts are disrupted (PC-3 cells): ~40%
